Measurements from patent US8987249B2, “Substituted 2-Aza-bicyclo[2.2.1]heptane-3-carboxylic acid (benzyl-cyano-methyl)-amides inhibitors of Cathepsin C” (Boehringer Ingelheim International GmbH, priority 2013, dated 2015).

Target: recombinant human DPPI (Cathepsin C) (Homo sapiens (Human), UniProt P53634)
Assay: Inhibition of human DPPI (Cathepsin C)
Assay type: biochemical
Details: substrate Gly-Arg-AMC
Description: Inhibition of Human DPPI (Cathepsin C)
Bovine serum albumin (BSA; Prod. No. A3059) and Dithiothreitol (DTT; Prod. No D0632) were from Sigma. […] The DPP1 inhibitor Gly-Phe-DMK was purchased from MP Biomedicals (Prod.-No. 03DK00625). The recombinant human DPPI was purchased from Prozymex. All other materials were of highest grade commercially available.
The following buffers were used: MES buffer: 25 mM MES, 50 mM NaCl, 5 mM DTT, adjusted to pH 6.0, containing 0.1% BSA; TAGZyme Buffer: 20 mM NaH2PO4, 150 mM NaCl adjusted to pH 6.0 with HCl
Then, 5 μL of substrate in MES buffer (final concentration 50 μM) were added. The microtiter plates were then incubated at room temperature for 30 min. Then, the reaction was stopped by adding 10 μL of Gly-Phe-DMK in MES-buffer (final concentration 1 μM).
The analysis of the data was performed by calculating the percentage of fluorescence in the presence of test compound in comparison to the fluorescence of the vehicle control after subtracting the background fluorescence using the following formula: (RFU(sample)−RFU(background))*100/(RFU(control)−RFU(background))
Data from these calculations were used to generate IC50 values for inhibition of DPPI, respectively.

Chain of recombinant human DPPI (Cathepsin C) (P53634 231-394): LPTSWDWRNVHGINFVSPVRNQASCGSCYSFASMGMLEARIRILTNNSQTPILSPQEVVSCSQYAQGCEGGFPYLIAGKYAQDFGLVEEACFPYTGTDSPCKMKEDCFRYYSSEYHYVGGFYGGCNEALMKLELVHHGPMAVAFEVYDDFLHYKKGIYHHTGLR
Chain of recombinant human DPPI (Cathepsin C) (P53634 395-463): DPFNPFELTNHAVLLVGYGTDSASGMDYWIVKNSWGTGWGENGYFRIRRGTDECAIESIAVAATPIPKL
Chain of recombinant human DPPI (Cathepsin C) (P53634 25-134): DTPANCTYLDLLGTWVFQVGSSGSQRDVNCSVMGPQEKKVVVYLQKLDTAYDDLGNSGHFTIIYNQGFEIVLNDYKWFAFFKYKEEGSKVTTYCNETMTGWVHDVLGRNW

SMILES: CN1Cc2ccc(-c3ccc(C[C@@H](C#N)NC(=O)[C@H]4N[C@@H]5CC[C@H]4C5)c(F)c3)cc2C1 [Example 1, (1S,2S,4R)—N-[(1S)-1-cyano-2-[2-fluoro-4-(2-methylisoindolin-5-yl)phenyl]ethyl]-3-azabicyclo[2.2.1]heptane-2-carboxamide]
- IC50: 8.6 nM

SMILES: N#CC(Cc1ccc2[nH]ncc2c1)NC(=O)[C@H]1N[C@@H]2CC[C@H]1C2 (stereo partly drawn) [Example 8, (1S,2S,4R)—N-[1-cyano-2-(1H-indazol-5-yl)ethyl]-3-azabicyclo[2.2.1]heptane-2-carboxamide]
- IC50: 679 nM

SMILES: COCC(=O)n1cc(-c2ccc(C[C@@H](C#N)NC(=O)[C@H]3N[C@@H]4CC[C@H]3C4)c(F)c2)cn1 [Example 87]
- IC50: 14.2 nM

SMILES: CN1C(=O)Cc2ccc(-c3ccc(CC(C#N)NC(=O)[C@H]4N[C@@H]5CC[C@H]4C5)c(O)c3)cc21 (some centres unmarked) [Example 120]
- IC50: 55.6 nM

SMILES: CN1C(=O)Cc2ccc(-c3ccc(CC(C#N)NC(=O)[C@H]4N[C@@H]5CC[C@H]4C5)c(OCc4ccccc4)c3)cc21 (some centres unmarked) [Example 122]
- IC50: 182 nM

SMILES: N#CC(Cc1ccc2c(c1)[nH]c(=O)c1ccccc12)NC(=O)[C@H]1N[C@@H]2CC[C@H]1C2 (stereo partly drawn) [Example 123, (1S,2S,4R)—N-[1-cyano-2-(6-oxo-5H-phenanthridin-3-yl)ethyl]-3-azabicyclo[2.2.1]heptane-2-carboxamide]
- IC50: 187 nM

SMILES: CC(C)OCc1cn(-c2ccc(C[C@@H](C#N)NC(=O)[C@H]3N[C@@H]4CC[C@H]3C4)c(F)c2)nn1 [Example 124]
- IC50: 187 nM

SMILES: Cc1cnn(C)c1-c1ccc(C[C@@H](C#N)NC(=O)[C@H]2N[C@@H]3CC[C@H]2C3)c(F)c1 [Example 126]
- IC50: 275 nM

SMILES: N#CC(Cc1ccc2cn[nH]c2c1)NC(=O)[C@H]1N[C@@H]2CC[C@H]1C2 (some centres unmarked) [Example 127]
- IC50: 860 nM

SMILES: N#CC(Cc1cccc2[nH]c(=O)c3ccccc3c12)NC(=O)[C@H]1N[C@@H]2CC[C@H]1C2 (stereo partly drawn) [Example 128, (1S,2S,4R)—N-[1-cyano-2-(6-oxo-5H-phenanthridin-1-yl)ethyl]-3-azabicyclo[2.2.1]heptane-2-carboxamide]
- IC50: 2390 nM

SMILES: Cn1c(=O)oc2ccc(-c3ccc(C[C@@H](C#N)NC(=O)[C@H]4N[C@H]5C[C@@H]4[C@@H]4C[C@@H]45)c(F)c3)cc21 [Example 129]
- IC50: 82.7 nM

SMILES: CC(=O)Nc1ccc(-c2ccc(C[C@@H](C#N)NC(=O)[C@H]3N[C@H]4C[C@@H]3[C@@H]3C[C@@H]34)c(F)c2)cc1 [Example 131]
- IC50: 139 nM

SMILES: Cn1cc2ccc(-c3ccc(C[C@@H](C#N)NC(=O)[C@H]4N[C@H]5C[C@@H]4[C@@H]4C[C@@H]45)c(F)c3)cc2n1 [Example 135]
- IC50: 286 nM

SMILES: Cn1ncc2cc(-c3ccc(C[C@@H](C#N)NC(=O)[C@H]4N[C@H]5C[C@@H]4[C@@H]4C[C@@H]45)c(F)c3)ccc21 [Example 137]
- IC50: 59.7 nM

SMILES: N#Cc1ccc(-c2ccc(C[C@@H](C#N)NC(=O)[C@H]3N[C@H]4C[C@@H]3[C@@H]3C[C@@H]34)c(F)c2)cn1 [Example 142]
- IC50: 63.1 nM

SMILES: Cc1nn(C)cc1-c1ccc(C[C@@H](C#N)NC(=O)[C@H]2N[C@@H]3CC[C@H]2C3)c(F)c1 [Example 160]
- IC50: 1.7 nM

SMILES: Cn1cc(-c2ccc(C[C@@H](C#N)NC(=O)[C@H]3N[C@@H]4CC[C@H]3C4)c(F)c2)cn1 [Example 163]
- IC50: 2.1 nM

SMILES: CCCNC(=O)c1cc(-c2ccc(C[C@@H](C#N)NC(=O)[C@H]3N[C@@H]4CC[C@H]3C4)c(F)c2)cs1 [Example 164]
- IC50: 2.3 nM

SMILES: N#C[C@H](Cc1ccc(-c2csc(C(=O)N3CCCC3)c2)cc1F)NC(=O)[C@H]1N[C@@H]2CC[C@H]1C2 [Example 165]
- IC50: 2.7 nM

SMILES: N#C[C@H](Cc1ccc(-c2cnn3cccnc23)cc1F)NC(=O)[C@H]1N[C@@H]2CC[C@H]1C2 [Example 168]
- IC50: 3.7 nM

SMILES: CN(C)C(=O)c1cc(-c2ccc(C[C@@H](C#N)NC(=O)[C@H]3N[C@@H]4CC[C@H]3C4)c(F)c2)cs1 [Example 170]
- IC50: 4.2 nM

SMILES: CCOc1nc(-c2ccc(C[C@@H](C#N)NC(=O)[C@H]3N[C@@H]4CC[C@H]3C4)c(F)c2)cs1 [Example 172]
- IC50: 5.2 nM

SMILES: N#C[C@H](Cc1ccc(-c2cnc(C3CC3)s2)cc1F)NC(=O)[C@H]1N[C@@H]2CC[C@H]1C2 [Example 173]
- IC50: 5.5 nM

SMILES: N#C[C@H](Cc1ccc(-c2cnc3cccnn23)cc1F)NC(=O)[C@H]1N[C@@H]2CC[C@H]1C2 [Example 174]
- IC50: 5.6 nM

SMILES: COC(=O)c1ccc(-c2ccc(C[C@@H](C#N)NC(=O)[C@H]3N[C@@H]4CC[C@H]3C4)c(F)c2)o1 [Example 175]
- IC50: 6.3 nM

SMILES: N#C[C@H](Cc1ccc(-c2ccc(S(=O)(=O)N3CCCCC3)cc2)cc1F)NC(=O)[C@H]1N[C@@H]2CC[C@H]1C2 [Example 177]
- IC50: 7.4 nM

SMILES: CCOC(=O)c1ccc(-c2ccc(C[C@@H](C#N)NC(=O)[C@H]3N[C@@H]4CC[C@H]3C4)c(F)c2)s1 [Example 179]
- IC50: 7.5 nM

SMILES: N#C[C@H](Cc1ccc(N2CCN(C3CC3)CC2)cc1F)NC(=O)[C@H]1N[C@@H]2CC[C@H]1C2 [Example 187]
- IC50: 9.8 nM

SMILES: CC1(C)CCN(c2ccc(C[C@@H](C#N)NC(=O)[C@H]3N[C@@H]4CC[C@H]3C4)c(F)c2)CC1 [Example 195]
- IC50: 14.7 nM

SMILES: N#C[C@H](Cc1ccc(N2CCCCC2)cc1F)NC(=O)[C@H]1N[C@@H]2CC[C@H]1C2 [Example 197]
- IC50: 15.6 nM

SMILES: COC(=O)c1cc(C)c(-c2ccc(C[C@@H](C#N)NC(=O)[C@H]3N[C@@H]4CC[C@H]3C4)c(F)c2)s1 [Example 198]
- IC50: 15.8 nM

SMILES: N#C[C@H](Cc1ccc(-c2ccc(C(=O)N3CCOCC3)cc2)cc1F)NC(=O)[C@H]1N[C@@H]2CC[C@H]1C2 [Example 202]
- IC50: 22.9 nM

SMILES: Cn1c(=O)c2cc(CC(C#N)NC(=O)[C@H]3N[C@@H]4CC[C@H]3C4)ccc2c2ccccc21 (some centres unmarked) [Example 206]
- IC50: 26.3 nM

SMILES: N#CC(Cc1ccc2c(c1)[nH]c(=O)c1cc(F)ccc12)NC(=O)[C@H]1N[C@@H]2CC[C@H]1C2 (some centres unmarked) [Example 207]
- IC50: 29.1 nM

SMILES: Cc1cn(C)c(-c2ccc(C[C@@H](C#N)NC(=O)[C@H]3N[C@@H]4CC[C@H]3C4)c(F)c2)n1 [Example 208]
- IC50: 29.8 nM

SMILES: N#CC(Cc1ccc2c(c1)CCc1ccccc1-2)NC(=O)[C@H]1N[C@@H]2CC[C@H]1C2 (some centres unmarked) [Example 209]
- IC50: 45.8 nM

SMILES: N#C[C@H](Cc1ccc(-c2ccc(C(=O)N3CCCCC3)cc2)cc1F)NC(=O)[C@H]1N[C@@H]2CC[C@H]1C2 [Example 210]
- IC50: 49.4 nM

SMILES: CN(C)C(=O)c1ccc(-c2ccc(C[C@@H](C#N)NC(=O)[C@H]3N[C@@H]4CC[C@H]3C4)c(F)c2)cc1 [Example 211]
- IC50: 61.1 nM

SMILES: N#CC(Cc1ccc2oc3ccccc3c2c1)NC(=O)[C@H]1N[C@@H]2CC[C@H]1C2 (some centres unmarked) [Example 212]
- IC50: 296 nM

SMILES: N#CC(Cc1ccc2[nH]c3ccccc3c2c1)NC(=O)[C@H]1N[C@@H]2CC[C@H]1C2 (some centres unmarked) [Example 213]
- IC50: 619 nM

SMILES: CS(=O)(=O)c1cc(-c2ccc(C[C@@H](C#N)NC(=O)[C@H]3N[C@H]4CC[C@@H]3C4)c(F)c2)ccc1C#N [Example 214]
- IC50: 815 nM

SMILES: N#CC(Cc1cccc2[nH]c(=O)c3cc(F)ccc3c12)NC(=O)[C@H]1N[C@@H]2CC[C@H]1C2 (some centres unmarked) [Example 215]
- IC50: 882 nM

SMILES: N#C[C@H](Cc1ccc(-c2ccc(S(=O)(=O)N3CCOCC3)cc2)cc1F)NC(=O)[C@H]1N[C@@H]2CC[C@H]1C2 [Example 217]
- IC50: 3.7 nM

SMILES: N#C[C@H](Cc1ccc2ccccc2c1)NC(=O)[C@H]1N[C@@H]2CC[C@H]1C2 [Example 220]
- IC50: 253 nM

SMILES: CN1CCN(S(=O)(=O)c2cccc(-c3ccc(C[C@@H](C#N)NC(=O)[C@H]4N[C@@H]5CC[C@H]4C5)c(F)c3)c2)CC1 [Example 224]
- IC50: 1.2 nM

SMILES: CN1CCN(C(=O)c2cc(-c3ccc(C[C@@H](C#N)NC(=O)[C@H]4N[C@@H]5CC[C@H]4C5)c(F)c3)cs2)CC1 [Example 225]
- IC50: 0.8 nM

SMILES: N#C[C@H](Cc1ccc(-c2csc(C(=O)N3CCn4nccc4C3)c2)cc1F)NC(=O)[C@H]1N[C@@H]2CC[C@H]1C2 [Example 226]
- IC50: 0.9 nM

SMILES: CC(C)N1CCN(C(=O)c2cc(-c3ccc(C[C@@H](C#N)NC(=O)[C@H]4N[C@@H]5CC[C@H]4C5)c(F)c3)cs2)CC1 [Example 227]
- IC50: 1 nM

SMILES: N#C[C@H](Cc1ccc(-c2csc(C(=O)N3CCN(CC(F)(F)F)CC3)c2)cc1F)NC(=O)[C@H]1N[C@@H]2CC[C@H]1C2 [Example 232]
- IC50: 2.2 nM

SMILES: N#C[C@H](Cc1ccc(-c2cnn(S(=O)(=O)c3ccccc3)c2)cc1F)NC(=O)[C@H]1N[C@@H]2CC[C@H]1C2 [Example 243]
- IC50: 4.8 nM

SMILES: CN(C)CCn1ccc(-c2ccc(C[C@@H](C#N)NC(=O)[C@H]3N[C@@H]4CC[C@H]3C4)c(F)c2)cc1=O [Example 256]
- IC50: 26.3 nM

SMILES: N#C[C@H](Cc1ccc(-c2cc[nH]c(=O)c2)cc1F)NC(=O)[C@H]1N[C@@H]2CC[C@H]1C2 [Example 257]
- IC50: 39.9 nM

SMILES: CS(=O)(=Nc1cccc(-c2ccc(C[C@@H](C#N)NC(=O)[C@H]3N[C@@H]4CC[C@H]3C4)c(F)c2)c1)C1CCOCC1 (some centres unmarked) [Example 264]
- IC50: 17 nM

SMILES: C[S+]([O-])c1cc(=O)n(-c2ccc(C[C@@H](C#N)NC(=O)[C@H]3N[C@@H]4CC[C@H]3C4)c(F)c2)cc1F (some centres unmarked) [Example 265]
- IC50: 62.7 nM

SMILES: CCc1cc(-c2ccc(C[C@@H](C#N)NC(=O)[C@H]3N[C@@H]4CC[C@H]3C4)c(F)c2)nn1CC(C)C [Example 273]
- IC50: 28.9 nM

SMILES: CCOc1cc(-c2ccc(C[C@@H](C#N)NC(=O)[C@H]3N[C@@H]4CC[C@H]3C4)c(F)c2)cc(S(C)(=O)=O)c1 [Example 275]
- IC50: 33 nM
